Test results as given in Sander's compilation of Henry's law constants (doi:10.1002/etc.5620111109).

Experiments:
[1] = Henry solubility constant Hcp at 293 K (mol/(m3 Pa)); details: reference: ten Hulscher et al. (1992)
[2] = Henry solubility constant Hcp at 298.15 K (mol/(m3 Pa)); details: reference: ten Hulscher et al. (1992)

| Compound | Henry solubility constant Hcp at 293 K [1] | Henry solubility constant Hcp [2] |
| --- | --- | --- |
| Clc1cc(Cl)c(Cl)c(Cl)c1 [1,2,3,5-tetrachlorobenzene] | 0.01 | – |
| Clc1cccc(Cl)c1Cl [1,2,3-trichlorobenzene] | 0.014 | – |
| Clc1cc(Cl)cc(Cl)c1 [1,3,5-trichlorobenzene] | 0.0052 | – |
| Clc1ccc(Cl)c(-c2cc(Cl)ccc2Cl)c1 [2,2',5,5'-tetrachlorobiphenyl] | – | 0.042 |
| Clc1ccc(Cl)c(-c2ccccc2)c1 [2,5-dichlorobiphenyl] | – | 0.023 |
| c1ccc2c(c1)cc1ccc3cccc4ccc2c1c34 [benzo[a]pyrene] | – | 22 |
| c1ccc2c(c1)-c1cccc3c1c-2cc1ccccc13 [benzo[b]fluoranthene] | – | 15 |
| c1cc2ccc3ccc4ccc5cccc6c(c1)c2c3c4c56 [benzo[ghi]perylene] | – | 30 |
| c1ccc2c(c1)-c1cccc3cccc-2c13 [benzo[jk]fluorene] | – | 1.1 |
| c1ccc2cc3c(cc2c1)-c1cccc2cccc-3c12 [benzo[k]fluoranthene] | – | 17 |
| c1ccc2c(c1)-c1ccc3ccc4cccc5cc-2c1c3c45 [indeno[1,2,3-cd]pyrene] | – | 28 |
